Source: ChEMBL document CHEMBL1201862, “PubChem BioAssay data set” (2004)
Blank lines part the entries; values can stand above or below the compound they belong to. Activity calls are given as the source filed them.

How the values were obtained:
[1] = target: T1, Mannose-6-phosphate isomerase (Homo sapiens, UniProt P34949); assay: human PMI inhibitors, high substrate, primary screen, biochemical, fluorescence intensity, high mannose 6-phosphate (AID 1220)
T1 sequence (P34949 whole entry): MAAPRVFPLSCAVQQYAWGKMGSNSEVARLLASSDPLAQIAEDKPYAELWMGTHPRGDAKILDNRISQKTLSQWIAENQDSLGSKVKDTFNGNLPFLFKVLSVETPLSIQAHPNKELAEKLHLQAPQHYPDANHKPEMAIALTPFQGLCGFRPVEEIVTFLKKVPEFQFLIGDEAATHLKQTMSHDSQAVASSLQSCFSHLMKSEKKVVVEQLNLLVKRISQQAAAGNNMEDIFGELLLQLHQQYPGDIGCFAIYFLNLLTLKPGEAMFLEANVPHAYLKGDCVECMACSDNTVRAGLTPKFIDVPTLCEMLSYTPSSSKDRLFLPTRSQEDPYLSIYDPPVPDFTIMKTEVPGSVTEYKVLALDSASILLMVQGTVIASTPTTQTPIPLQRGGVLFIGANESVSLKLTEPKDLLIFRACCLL

Prothrombin = Prothrombin (Homo sapiens, UniProt P00734); assay: Thrombin 1536 HTS Dose Response Confirmation. [Related pubchem assays: 1046 (Thrombin 1536 HTS; hits were confirmed in this assay)]; type: functional
Protein Tat = target: T2, Protein Tat (Human immunodeficiency virus type 1 group M subtype B (isolate HXB2)(HIV-1), UniProt P04608); type: functional;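 note: tat binding to TAR RNA read out by fluorescence polarization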
T2 sequence (P04608 whole entry): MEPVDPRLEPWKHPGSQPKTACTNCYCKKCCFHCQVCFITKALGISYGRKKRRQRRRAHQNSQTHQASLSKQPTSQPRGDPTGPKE

Cytochrome P450 2C19 = Cytochrome P450 2C19 (Homo sapiens, UniProt P33261); assay: qHTS Assay for Inhibitors and Substrates of Cytochrome P450 2C19. [Related pubchem assays: 410 ]; type: ADME; conditions: read-out: Potency
Chain of Cytochrome P450 2C19 (P33261 whole entry): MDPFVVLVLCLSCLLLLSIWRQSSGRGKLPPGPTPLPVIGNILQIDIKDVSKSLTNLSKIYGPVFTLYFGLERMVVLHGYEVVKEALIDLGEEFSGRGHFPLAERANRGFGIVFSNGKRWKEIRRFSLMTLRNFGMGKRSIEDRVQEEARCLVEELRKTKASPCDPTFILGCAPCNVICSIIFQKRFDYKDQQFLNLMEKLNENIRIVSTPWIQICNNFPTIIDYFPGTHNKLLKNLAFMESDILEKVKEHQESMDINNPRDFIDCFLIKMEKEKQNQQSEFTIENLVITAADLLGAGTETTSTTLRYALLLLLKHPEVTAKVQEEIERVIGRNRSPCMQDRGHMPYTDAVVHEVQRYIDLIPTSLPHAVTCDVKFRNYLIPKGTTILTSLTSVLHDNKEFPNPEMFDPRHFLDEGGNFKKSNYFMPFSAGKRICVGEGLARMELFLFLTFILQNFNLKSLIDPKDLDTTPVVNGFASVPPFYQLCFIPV

X-box-binding protein 1 = X-box-binding protein 1 (Homo sapiens, UniProt P17861); type: functional, Cricetulus griseus;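 note: confirmatory dose-response counter-screen serving a CHOP assay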
Chain of X-box-binding protein 1 (P17861 whole entry): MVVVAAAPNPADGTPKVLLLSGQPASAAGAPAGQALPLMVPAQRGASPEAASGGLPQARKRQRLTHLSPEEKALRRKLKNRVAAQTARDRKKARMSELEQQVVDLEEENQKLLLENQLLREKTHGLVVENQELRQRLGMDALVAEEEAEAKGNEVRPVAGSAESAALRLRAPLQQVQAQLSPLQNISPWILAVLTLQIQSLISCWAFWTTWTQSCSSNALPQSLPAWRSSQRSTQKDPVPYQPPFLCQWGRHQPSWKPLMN

[2] = target: E3 ubiquitin-protein ligase Mdm2 (Homo sapiens, UniProt Q00987); assay: enhancers of MDM2-luciferase reporter signal, concentration-effect titration, project on inhibitors of MDM2 ubiquitin ligase, cellular assay, luminescent readout, 384-well plate format (AID 1394); type: functional;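 note: MDM2 E3 inhibitors raise luminescence so EC50 is for signal enhancement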
Chain of E3 ubiquitin-protein ligase Mdm2 (Q00987 whole entry): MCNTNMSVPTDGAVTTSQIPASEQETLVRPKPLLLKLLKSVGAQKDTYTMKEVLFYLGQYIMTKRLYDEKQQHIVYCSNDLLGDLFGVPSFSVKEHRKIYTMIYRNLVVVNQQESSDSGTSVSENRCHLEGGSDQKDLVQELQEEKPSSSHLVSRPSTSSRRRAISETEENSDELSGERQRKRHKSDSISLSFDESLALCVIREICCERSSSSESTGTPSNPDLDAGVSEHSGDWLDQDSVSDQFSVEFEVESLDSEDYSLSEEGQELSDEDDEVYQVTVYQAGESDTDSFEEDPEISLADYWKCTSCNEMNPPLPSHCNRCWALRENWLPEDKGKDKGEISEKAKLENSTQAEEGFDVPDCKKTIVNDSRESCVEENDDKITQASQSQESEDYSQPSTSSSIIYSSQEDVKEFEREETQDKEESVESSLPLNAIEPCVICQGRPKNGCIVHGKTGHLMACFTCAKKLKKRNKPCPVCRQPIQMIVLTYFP

[3] = target: T3, High affinity choline transporter 1 (Homo sapiens, UniProt Q9GZV3); assay: CHT inhibitors, dose response, cell-based, 5-point CRC, membrane potential dye (AID 504840); type: functional
T3 sequence (Q9GZV3 whole entry): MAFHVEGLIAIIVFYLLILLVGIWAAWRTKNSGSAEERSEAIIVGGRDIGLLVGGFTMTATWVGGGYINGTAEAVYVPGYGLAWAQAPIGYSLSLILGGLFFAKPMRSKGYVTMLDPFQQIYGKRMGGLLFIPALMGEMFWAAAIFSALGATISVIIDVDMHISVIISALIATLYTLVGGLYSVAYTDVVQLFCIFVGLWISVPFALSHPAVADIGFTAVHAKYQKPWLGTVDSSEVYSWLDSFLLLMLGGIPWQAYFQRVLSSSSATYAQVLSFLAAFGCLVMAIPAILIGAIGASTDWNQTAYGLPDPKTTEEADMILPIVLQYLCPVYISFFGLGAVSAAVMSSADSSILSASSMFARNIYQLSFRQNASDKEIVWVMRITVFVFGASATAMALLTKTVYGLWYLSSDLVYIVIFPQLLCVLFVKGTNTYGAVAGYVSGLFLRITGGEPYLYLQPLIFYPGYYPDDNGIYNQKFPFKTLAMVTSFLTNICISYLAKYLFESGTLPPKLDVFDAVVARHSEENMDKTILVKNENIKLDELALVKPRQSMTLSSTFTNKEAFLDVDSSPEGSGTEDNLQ

[4] = test system: Streptococcus sp. 'group A'; assay: growth inhibition of control SK(-) GAS strain, dose response, counter-screen for streptokinase expression inhibitor project, luminescence, kanamycin, BacTiterGlo, confirmation (AID 1900); type: functional, organism-based
[5] = inhibitors of intracellular T. cruzi replication, confirmation, NIH3T3 host cells, beta-gal luminescence (AID 2044); type: functional, cell-based;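 note: intracellular parasites grown in NIH/3T3 mouse fibroblasts as host cells; luminescent beta-galactosidase reporter signal from transgenic T. cruzi replicating inside host cells; inhibitors lower the luminescence signal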
Streptococcus = assay: Group A Streptococcus viability loss, dose response, counter-screen for streptokinase expression inhibitor project, luminescence, BacTiterGlo (AID 1915); type: functional, organism-based;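 note: potency for reduction of bacterial viability or growth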
[6] = cytotoxicity toward NIH3T3 fibroblasts, dose response, counter-screen, cell-based, ATP luminescence, mouse fibroblasts (AID 2010); type: functional;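 note: cells exposed to compound for about 90 hours before reading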
[7] = target: Sphingosine 1-phosphate receptor 2 (Homo sapiens, UniProt O95136); assay: Dose Response Cell Based Assay for Agonists of the S1P2 Receptor. [Related pubchem assays: 729, 736, 843 ]; type: functional
Chain of Sphingosine 1-phosphate receptor 2 (O95136 whole entry): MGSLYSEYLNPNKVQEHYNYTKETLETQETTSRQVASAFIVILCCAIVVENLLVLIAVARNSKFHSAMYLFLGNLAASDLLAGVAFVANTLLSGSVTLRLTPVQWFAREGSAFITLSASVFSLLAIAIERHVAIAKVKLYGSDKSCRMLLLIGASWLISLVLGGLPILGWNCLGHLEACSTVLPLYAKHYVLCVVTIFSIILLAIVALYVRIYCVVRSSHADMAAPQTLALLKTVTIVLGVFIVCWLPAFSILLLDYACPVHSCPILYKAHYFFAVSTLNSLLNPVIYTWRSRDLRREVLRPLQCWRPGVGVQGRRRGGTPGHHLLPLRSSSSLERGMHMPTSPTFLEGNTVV

[8] = target: Aryl hydrocarbon receptor (Homo sapiens, UniProt P35869); assay: Luminescence-based cell-based high throughput dose response assay for activators of the Aryl Hydrocarbon Receptor (AHR). [Related pubchem assays: 2796 (Primary screen (AHR activators in singlicate)), 2845 (Confirmation screen (AHR activators in triplicate)), 434939 (Counterscreen (PXR activators in triplicate)), 2804 (Summary (AHR activators))]; type: ADME
Chain of Aryl hydrocarbon receptor (P35869 whole entry): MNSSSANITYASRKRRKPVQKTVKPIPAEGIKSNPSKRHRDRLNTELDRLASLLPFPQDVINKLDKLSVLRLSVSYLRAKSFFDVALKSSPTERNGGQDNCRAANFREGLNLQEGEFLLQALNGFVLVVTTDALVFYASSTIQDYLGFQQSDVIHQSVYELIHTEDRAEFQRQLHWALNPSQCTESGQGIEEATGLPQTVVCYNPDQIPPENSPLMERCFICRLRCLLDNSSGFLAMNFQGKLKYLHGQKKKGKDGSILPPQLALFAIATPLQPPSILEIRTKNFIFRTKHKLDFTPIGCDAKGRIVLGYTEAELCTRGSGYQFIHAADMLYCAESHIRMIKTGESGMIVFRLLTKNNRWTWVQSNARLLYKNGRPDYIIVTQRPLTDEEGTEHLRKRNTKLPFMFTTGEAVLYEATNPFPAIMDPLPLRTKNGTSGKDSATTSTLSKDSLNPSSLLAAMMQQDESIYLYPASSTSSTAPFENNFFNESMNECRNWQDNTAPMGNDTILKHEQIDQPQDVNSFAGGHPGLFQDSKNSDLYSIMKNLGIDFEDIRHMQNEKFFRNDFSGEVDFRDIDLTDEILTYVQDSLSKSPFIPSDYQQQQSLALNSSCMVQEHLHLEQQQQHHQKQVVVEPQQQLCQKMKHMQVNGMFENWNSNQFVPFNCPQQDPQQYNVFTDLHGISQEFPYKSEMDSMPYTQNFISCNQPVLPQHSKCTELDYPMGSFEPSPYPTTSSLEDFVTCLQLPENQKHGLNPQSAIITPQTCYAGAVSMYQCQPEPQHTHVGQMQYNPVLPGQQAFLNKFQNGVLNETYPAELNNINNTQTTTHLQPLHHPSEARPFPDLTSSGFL

[9] = target: T4, Tyrosine-protein phosphatase non-receptor type 7 (Homo sapiens, UniProt P35236); assay: inhibitors of human HePTP phosphatase, […], biochemical, absorbance, leukemia target (AID 521); type: functional
T4 sequence (P35236 whole entry): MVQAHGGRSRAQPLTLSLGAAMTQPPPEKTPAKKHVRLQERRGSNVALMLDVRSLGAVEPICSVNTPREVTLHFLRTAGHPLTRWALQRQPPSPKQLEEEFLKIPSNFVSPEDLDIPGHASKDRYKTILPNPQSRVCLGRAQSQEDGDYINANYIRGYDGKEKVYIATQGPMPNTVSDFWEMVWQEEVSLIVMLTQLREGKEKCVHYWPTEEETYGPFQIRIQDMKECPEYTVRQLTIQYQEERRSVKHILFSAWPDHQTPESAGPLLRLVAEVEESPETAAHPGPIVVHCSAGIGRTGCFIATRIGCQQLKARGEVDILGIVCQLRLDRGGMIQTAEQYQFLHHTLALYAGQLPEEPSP

Ephrin type-A receptor 4 = Ephrin type-A receptor 4 (Mus musculus, UniProt Q03137); assay: inhibitors of EphA4 binding to KYL peptide, primary screen, biochemical, colorimetric, mouse EphA4 (AID 689); type: functional
Chain of Ephrin type-A receptor 4 (Q03137 whole entry): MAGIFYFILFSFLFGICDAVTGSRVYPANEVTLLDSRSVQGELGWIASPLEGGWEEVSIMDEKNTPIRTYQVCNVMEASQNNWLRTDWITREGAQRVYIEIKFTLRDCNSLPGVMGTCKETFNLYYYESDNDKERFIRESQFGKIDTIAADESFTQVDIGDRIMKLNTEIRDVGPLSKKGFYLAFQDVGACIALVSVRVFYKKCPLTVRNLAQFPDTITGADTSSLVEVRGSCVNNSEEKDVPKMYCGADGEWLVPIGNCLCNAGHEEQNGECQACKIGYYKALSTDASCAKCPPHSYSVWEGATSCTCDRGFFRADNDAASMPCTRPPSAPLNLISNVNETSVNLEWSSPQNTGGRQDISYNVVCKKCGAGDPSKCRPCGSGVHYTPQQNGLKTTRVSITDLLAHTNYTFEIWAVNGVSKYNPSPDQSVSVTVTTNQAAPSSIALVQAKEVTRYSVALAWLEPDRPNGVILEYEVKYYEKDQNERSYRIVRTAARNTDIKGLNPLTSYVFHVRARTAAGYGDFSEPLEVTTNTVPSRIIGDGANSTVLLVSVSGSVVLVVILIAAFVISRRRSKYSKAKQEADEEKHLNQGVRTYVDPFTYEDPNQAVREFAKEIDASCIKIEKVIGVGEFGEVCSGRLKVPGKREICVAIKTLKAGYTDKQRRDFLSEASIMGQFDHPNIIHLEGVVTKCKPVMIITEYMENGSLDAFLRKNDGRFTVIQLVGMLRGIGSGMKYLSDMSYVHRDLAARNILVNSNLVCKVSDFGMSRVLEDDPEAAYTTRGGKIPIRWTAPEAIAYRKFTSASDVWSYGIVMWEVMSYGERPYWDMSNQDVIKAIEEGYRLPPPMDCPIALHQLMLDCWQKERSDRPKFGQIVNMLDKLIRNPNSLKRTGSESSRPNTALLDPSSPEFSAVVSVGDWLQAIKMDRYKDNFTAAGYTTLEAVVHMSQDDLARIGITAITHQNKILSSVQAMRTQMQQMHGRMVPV

[10] = target: Heat shock protein HSP 90-alpha (Homo sapiens, UniProt P07900); assay: Luminescence-based dose response biochemical high throughput screening assay for inhibitors of the Heat Shock Protein 90 (HSP90). [Related pubchem assays: 1831 (Summary AID.), 1846 (Confirmation screen.), 1789 (Primary screen.)]

SMILES: Nc1cccc2c1=NC1(CCCCC1)[N+]=2[O-]
- IC50 [1]: > 50 µM (not active)
- IC50 (Prothrombin): > 50 µM (not active)
- IC50 (Protein Tat): > 100 µM (inconclusive)

SMILES: COC(=O)NC(c1cccc(F)c1)[C@]1(C(C)=O)CCCC1=O (stereo partly drawn)
- AC50 (Cytochrome P450 2C19): 2.51 µM (inconclusive)

SMILES: CC(C)c1ccc2c(c1)C1(NN=C(c3ccccc3)S1)C(=O)N2 (stereo not drawn)
- Absolute IC50 (XBP1) (X-box-binding protein 1): 10 µM
- EC50 [2]: 1.42 µM (active)
- IC50 [3]: 12.6 µM (active)
- EC50 [4]: < 0.06 µM (active)
- EC50 [5]: 0.333 µM (active)
- EC50 (Streptococcus): 2.81 µM (active)
- EC50 [6]: 6.8 µM (active)

SMILES: O=C(Nc1ccccc1)c1ccc(NCC2CCCO2)c(S(=O)(=O)N2CCOCC2)c1 (stereo not drawn)
- IC50 [9]: > 100 µM (not active)

SMILES: O=C(CCN1C(=O)/C(=C/C=C/c2ccccc2)SC1=S)Nc1nccs1
- IC50 (Ephrin type-A receptor 4): > 100 µM (not active)

SMILES: CCc1ccc(Nc2n[n+](-c3ccccc3)c(-c3ccc(N(CC)CC)cc3)s2)cc1
- IC50 [10]: 5.48 µM (active)
- EC50 [5]: 0.408 µM (active)
- EC50 [6]: > 60 µM (not active)

Further lines, results first:

- EC50 [7]: > 50 µM (not active)
SMILES: O=C(NCC1(c2ccccc2)CCCC1)C(=O)N1CCOCC1

- EC50 [8]: 6.13 µM (active)
SMILES: CCOCCc1nnc(NC(=O)c2ccc(OC)c(OC)c2)s1
